Experimental data as given in US20250295680A1, “NOVEL DUTOGLIPTIN FORMULATIONS AND THEIR PREPARATION” (Recardio Inc., priority 2022, published 2025).

Test: Solubility of fatty acid sodium salts and salt precipitation/anion exchange with Dutogliptin tartrate
Assay type: physicochemical
Details: for Solubility 2-8° C. / Solubility 25° C.: volume for the stated amount of substance (0.41 mmol Dutogliptin tartrate, 0.83 mmol fatty acid salts); for Precipitation after addition of Dutogliptin tartrate solution: 100 mg/ml Dutogliptin tartrate solution, 2-8° C.
Method: Assuming that the ion lattice of Dutogliptin tartrate (dissolved in water) is pulled apart so that the individual Dutogliptin and tartrate ions are in solution, an exchange should take place by adding excess fatty acid anions. The resulting hydrophobic salt should form and precipitate due to reduced solubility.
To promote the exchange, the salts, which were dissolved at room temperature, were cooled to 2-8° C. after the addition of Dutogliptin tartrate and stirred overnight.
Five different physiologic fatty acids (as sodium salts) were prepared by anion exchange of the tartrates with a double molar addition of the salts at a reduced temperature (reduced Dutogliptin tartrate solubility).

[1] = listed as sodium cholate, hydrate

Compound: CCCCCCCCCCCC(=O)[O-].[Na+] [Sodium Laurate]
- Solubility 2-8° C.: not soluble
- Solubility 25° C.: 10 mL

Compound: CCCCCCCCCCCCCC(=O)[O-].[Na+] [Sodium Myristate]
- Solubility 2-8° C.: not soluble
- Solubility 25° C.: >10 mL

Compound: C[C@H](CCC(=O)[O-])[C@H]1CC[C@H]2[C@@H]3[C@H](O)C[C@@H]4C[C@H](O)CC[C@]4(C)[C@H]3C[C@H](O)[C@]12C.O.[Na+] [Sodium cholate hydrate]
- Precipitation after addition of Dutogliptin tartrate solution (hydrate): no precipitation
- Precipitation after addition of Dutogliptin tartrate solution [1]: no visual evidence of turbidity or precipitation
- Solubility 25° C.: 5 mL
- Solubility 2-8° C. (hydrate): 5 mL, clear
- Solubility 2-8° C. [1]: remained sufficient soluble
